For 38 compounds, IC50 results are on record in US20240018125A1, “CYCLIC ISOTHIOUREA DERIVATIVES AS CXCR4 MODULATORS” (ERMIUM THERAPEUTICS, priority 2020, published 2024).

SMILES strings stand for the structures. Where a name gives a salt, the structure may show the parent alone. Where only a bound is given, the exact number is not on record here.

In the experiment the test system is peripheral blood mononuclear cells (PBMCs) from healthy donors. Kind of experiment: IFN production by R848-activated PBMCs, quantified with twINNE luciferase reporter cell line. It is filed as cell-based, human. As to conditions: Homo sapiens, PBMC; read-out: IC50 of anti-inflammatory activity (IFN production by activated PBMCs). Put shortly:
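Healthy-donor PBMCs (4.10^6/mL, RPMI/10% FBS) were pre-treated with compound, then stimulated with R848 at 5 μg/mL for 24 h. Supernatants were put on twINNE cells, which carry luciferase under five ISREs, for 24 h, and Bright-Glo luminescence was read. IC50 values came from variable-slope dose-response fits.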
(A reporter such as luciferase makes a cellular process visible.)
Broadly, the IC50 is the concentration at which inhibition is half-maximal. Regarding `c1ccc2c(c1)CN=C(SCCN1CCCCC1)N2` [Example 91, 2-((2-(piperidin-1-yl)ethyl)thio)-1,4-dihydroquinazoline dihydrochloride], the IC50 was ≤ 10 µM.

`O=C(O)C1CCN(CCSC2=NCc3ccccc3N2)C1` (centres unmarked) [Example 144, 1-(2-((1,4-dihydroquinazolin-2-yl)thio)ethyl)pyrrolidine-3-carboxylic acid dihydrochloride]: the IC50 is > 32 µM.

For `C1CCN(CCSC2=NCC3(CC3)N2)C1` [Example 187, 5-((2-(pyrrolidin-1-yl)ethyl)thio)-4,6-diazaspiro[2.4]hept-5-ene dihydrochloride], the 50% inhibitory concentration (IC50) is ≤ 10 µM.

Take `CC1(C)CN2C(CSC3=NCc4cc(Cl)ccc4N3)=CSC2=N1` [Example 1, 3-(((6-chloro-1,4-dihydroquinazolin-2-yl)thio)methyl)-6,6-dimethyl-5,6-dihydroimidazo[2,1-b]thiazole dihydrochloride]: the IC50 was ≤ 10 µM.

Turning to `CCN1CCC(SC2=NCc3ccccc3N2)C1` (centres unmarked) [Example 104, 2-((1-ethylpyrrolidin-3-yl)thio)-1,4-dihydroquinazoline dihydrochloride], the concentration for half-maximal inhibition (IC50) was ≤ 10 µM.

Turning to `Clc1ccc2c(c1)CN1C(CSC3=NCCN3Cc3ccccc3)=CSC1=N2` [Example 47, 3-(((1-benzyl-4,5-dihydro-1H-imidazol-2-yl)thio)methyl)-7-chloro-5H-thiazolo[2,3-b]quinazoline dihydrochloride], the half-maximal inhibitory concentration (IC50) was ≤ 10 µM.

On to `Fc1ccc(CC2CN3C(CSC4=NCc5ccccc5N4)=CSC3=N2)cc1` (centres unmarked) [Example 196, 3-(((1,4-dihydroquinazolin-2-yl)thio)methyl)-6-(4-fluorobenzyl)-5,6-dihydroimidazo[2,1-b]thiazole dihydrochloride], for which the half-inhibitory concentration (IC50) was ≤ 10 µM.

As for `CC1(c2ccccc2)CN=C(SCCN2CCCC2)N1` (centres unmarked) [Example 131, 5-methyl-5-phenyl-2-((2-(pyrrolidin-1-yl)ethyl)thio)-4,5-dihydro-1H-imidazole dihydrochloride], the 50% inhibitory concentration (IC50) lay within 10 to 32 µM.

Take `c1ccc2c(c1)CN=C(SC1CCC[C@H]1N1CCCC1)N2` (stereo partly drawn) [Example 141, 2-(((2R)-2-(pyrrolidin-1-yl)cyclopentyl)thio)-1,4-dihydroquinazoline dihydrochloride]: the IC50 was in the range of 10 to 32 µM.

Take `c1ccc2c(c1)CCN=C(S[C@H]1CCNC1)N2` [Example 199, (S)-2-(pyrrolidin-3-ylthio)-4,5-dihydro-3H-benzo[d][1,3]diazepine dihydrochloride]: the IC50 fell in the range of 10 to 32 µM.

Take `C(CCN1CCCC1)CSC1=NCCN1` [Example 175, 2-((4-(pyrrolidin-1-yl)butyl)thio)-4,5-dihydro-1H-imidazole dihydrochloride]: the IC50 was > 32 µM.

For the compound `C1=C(CSC2=NCc3ccccc3N2)N2CC(c3ccccc3)N=C2S1` (centres unmarked) [Example 120, 3-(((1,4-dihydroquinazolin-2-yl)thio)methyl)-6-phenyl-5,6-dihydroimidazo[2,1-b]thiazole dihydrochloride], the IC50 is ≤ 10 µM.

As to `Brc1ccc2c(c1)NC(SCC1=CSC3=NC(Cc4ccccc4)CN13)=NC2` (centres unmarked) [Example 119, 6-benzyl-3-(((7-bromo-1,4-dihydroquinazolin-2-yl)thio)methyl)-5,6-dihydroimidazo[2,1-b]thiazole dihydrochloride], the IC50 was ≤ 10 µM.

Take `CCCCN1C(SCC2=CSC3=NC(Cc4ccccc4)CN23)=NCc2ccccc21` (centres unmarked) [Example 99, 6-benzyl-3-(((1-butyl-1,4-dihydroquinazolin-2-yl)thio)methyl)-5,6-dihydroimidazo[2,1-b]thiazole dihydrochloride]: the concentration for half-maximal inhibition (IC50) was ≤ 10 µM.

For `Cl.c1ccc2c(c1)CN=C(SCc1csc3nc4ccccc4n13)N2` [Example 96, 3-(((3,4-dihydroquinazolin-2-ylthio)methyl)benzo[4,5]imidazo[2,1-b]thiazole hydrochloride], the IC50 was > 32 µM.

Consider `FC1(F)CCN(CCSC2=NCc3ccccc3N2)C1` [Example 125, 2-((2-(3,3-difluoropyrrolidin-1-yl)ethyl)thio)-1,4-dihydroquinazoline dihydrochloride], for which the concentration for half-maximal inhibition (IC50) fell in the range of 10 to 32 µM.

As for `CN1CCC(SC2=NCCc3ccccc3N2)C1` (centres unmarked) [Example 105, 2-((1-methylpyrrolidin-3-yl)thio)-4,5-dihydro-1H-benzo[d][1,3]diazepine dihydrochloride], the IC50 was in the range of 10 to 32 µM.

Regarding `C1=C(CSC2=Nc3ccccc3C(c3ccccc3)N2)N2Cc3ccccc3CN=C2S1` (centres unmarked) [Example 27, 3-(((4-phenyl-3,4-dihydroquinazolin-2-yl)thio)methyl)-5,10-dihydrobenzo[e]thiazolo[3,2-a][1,3]diazepine dihydrochloride], the IC50 was ≤ 10 µM.

`C1=C(CSC2=NCC(C3CCCCC3)N2)N2Cc3ccccc3CN=C2S1` (centres unmarked) [Example 26, 3-(((4-cyclohexyl-4,5-dihydro-1H-imidazol-2-yl)thio)methyl)-5,10-dihydrobenzo[e]thiazolo[3,2-a][1,3]diazepine dihydrochloride]: the IC50 is ≤ 10 µM.

On to `CC1(c2ccccc2)CN=C(SCC2=CSC3=Nc4ccc(Cl)cc4CN23)N1` (centres unmarked) [Example 72, 7-chloro-3-(((5-methyl-5-phenyl-4,5-dihydro-1H-imidazol-2-yl)thio)methyl)-5H-thiazolo[2,3-b]quinazoline dihydrochloride], for which the IC50 is ≤ 10 µM.

As for `c1ccc2c(c1)CN=C(SCCN1CCCCCC1)N2` [Example 90, 2-((2-(azepan-1-yl)ethyl)thio)-1,4-dihydroquinazoline dihydrochloride], the IC50 was ≤ 10 µM.

In the case of `c1ccc(CC2CN=C(SCCN3CCCCCC3)N2)cc1` (centres unmarked) [Example 58, 1-(2-((5-benzyl-4,5-dihydro-1H-imidazol-2-yl)thio)ethyl)azepane dihydrochloride], the half-maximal inhibitory concentration (IC50) was in the range of 10 to 32 µM.

Consider `Fc1ccc2c(c1)CN=C(SCCCCN1CCCC1)N2` [Example 152, 6-fluoro-2-((4-(pyrrolidin-1-yl)butyl)thio)-1,4-dihydroquinazoline dihydrochloride], for which the 50% inhibitory concentration (IC50) was 10 to 32 µM.

As for `Cc1cccc(CC2CN3C(CSC4=NCc5ccccc5N4)=CSC3=N2)c1` (centres unmarked) [Example 112, 3-(((1,4-dihydroquinazolin-2-yl)thio)methyl)-6-(3-methylbenzyl)-5,6-dihydroimidazo[2,1-b]thiazole dihydrochloride], the half-inhibitory concentration (IC50) was ≤ 10 µM.

Regarding `Brc1cccc2c1N=C1SC=C(CSC3=NCc4ccccc4N3)N1C2` [Example 85, 9-bromo-3-(((1,4-dihydroquinazolin-2-yl)thio)methyl)-5H-thiazolo[2,3-b]quinazoline dihydrochloride], the concentration for half-maximal inhibition (IC50) is ≤ 10 µM.

In the case of `CN1CCN=C1SCC1=CSC2=Nc3ccc(Cl)cc3CN12` [Example 45, 7-chloro-3-(((1-methyl-4,5-dihydro-1H-imidazol-2-yl)thio)methyl)-5H-thiazolo[2,3-b]quinazoline dihydrochloride], the 50% inhibitory concentration (IC50) is ≤ 10 µM.

Turning to `CCCCN1CCN=C1SCC1=CSC2=NCc3ccccc3CN12` [Example 37, 3-(((1-butyl-4,5-dihydro-1H-imidazol-2-yl)thio)methyl)-5,10-dihydrobenzo[e]thiazolo[3,2-a][1,3]diazepine dihydrochloride], the concentration for half-maximal inhibition (IC50) is ≤ 10 µM.

Consider `CN1CC[C@H](SC2=NCCc3ccccc3N2)C1` [Example 200, (S)-2-((1-methylpyrrolidin-3-yl)thio)-4,5-dihydro-3H-benzo[d][1,3]diazepine dihydrochloride], for which the concentration for half-maximal inhibition (IC50) was ≤ 10 µM.

`c1cncc(CSC2=NCc3ccccc3CN2)c1` [Example 193, 3-((pyridin-3-ylmethyl)thio)-2,5-dihydro-1H-benzo[e][1,3]diazepine]: the IC50 is > 32 µM.

For `c1ccc2c(c1)CN=C(SCCN1CCC3(CCCC3)C1)N2` [Example 142, 2-((2-(2-azaspiro[4.4]nonan-2-yl)ethyl)thio)-1,4-dihydroquinazoline dihydrochloride], the IC50 is ≤ 10 µM.

`CN1CCC(CCSC2=NCc3ccccc3N2)C1` (centres unmarked) [Example 145, 2-((2-(1-methylpyrrolidin-3-yl)ethyl)thio)-1,4-dihydroquinazoline dihydrochloride]: the half-inhibitory concentration (IC50) was in the range of 10 to 32 µM.

On to `FC(F)CN1CCC(SC2=NCc3ccccc3N2)C1` (centres unmarked) [Example 102, 2-((1-(2,2-difluoroethyl)pyrrolidin-3-yl)thio)-1,4-dihydroquinazoline hydrochloride], for which the concentration for half-maximal inhibition (IC50) is 10 to 32 µM.

As to `CC1(C)N=C(SCCN2CCCC2)Nc2ccccc21` [Example 78, 4,4-dimethyl-2-((2-(pyrrolidin-1-yl)ethyl)thio)-1,4-dihydroquinazoline dihydrochloride], the IC50 is > 32 µM.

As for `Clc1nccc2sc(CSC3=NCc4ccccc4N3)cc12` [Example 116, 4-chloro-2-(((1,4-dihydroquinazolin-2-yl)thio)methyl)thieno[3,2-c]pyridine dihydrochloride], the IC50 was ≤ 10 µM.

For `Fc1cc(Cl)cc2c1N=C1SC=C(CSC3=NCc4ccccc4N3)N1C2` [Example 86, 7-chloro-3-(((1,4-dihydroquinazolin-2-yl)thio)methyl)-9-fluoro-5H-thiazolo[2,3-b]quinazoline dihydrochloride], the IC50 is ≤ 10 µM.

In the case of `CC1(C)N=C(SCC2=CSC3=NC(Cc4ccccc4)CN23)Nc2ccccc21` (centres unmarked) [Example 87, 6-benzyl-3-(((4,4-dimethyl-1,4-dihydroquinazolin-2-yl)thio)methyl)-5,6-dihydroimidazo[2,1-b]thiazole dihydrochloride], the IC50 is ≤ 10 µM.

Turning to `O=C1CCCN1CCSC1=NCc2ccccc2N1` [Example 135, 1-(2-((1,4-dihydroquinazolin-2-yl)thio)ethyl)pyrrolidin-2-one hydrochloride], the IC50 was > 32 µM.

For `COc1ccc(C[C@@H]2CN3C(CSC4=NCc5ccccc5N4)=CSC3=N2)cc1` [Example 124, (R)-3-(((1,4-dihydroquinazolin-2-yl)thio)methyl)-6-(4-methoxybenzyl)-5,6-dihydroimidazo[2,1-b]thiazole dihydrochloride], the half-maximal inhibitory concentration (IC50) was ≤ 10 µM.
